Laboratory results taken from US6878381B2, “Resorcinol composition” (Pfizer, Inc, priority 1999, dated 2005).

Legend:
[1] = molecular target: T1, human tyrosinase (Homo sapiens, UniProt P14679); experiment: Tyrosinase (DOPA oxidase) assay using cell lysate; format: biochemical; settings: SKMEL 188 human melanoma cell lysate; L-DOPA 100 μg/ml; 8 hr incubation; read at 405 nm
T1 construct: endogenous in cells; host or cells: SKMEL 188 human melanoma cell line (lysate)
T1 sequence (P14679 19-529): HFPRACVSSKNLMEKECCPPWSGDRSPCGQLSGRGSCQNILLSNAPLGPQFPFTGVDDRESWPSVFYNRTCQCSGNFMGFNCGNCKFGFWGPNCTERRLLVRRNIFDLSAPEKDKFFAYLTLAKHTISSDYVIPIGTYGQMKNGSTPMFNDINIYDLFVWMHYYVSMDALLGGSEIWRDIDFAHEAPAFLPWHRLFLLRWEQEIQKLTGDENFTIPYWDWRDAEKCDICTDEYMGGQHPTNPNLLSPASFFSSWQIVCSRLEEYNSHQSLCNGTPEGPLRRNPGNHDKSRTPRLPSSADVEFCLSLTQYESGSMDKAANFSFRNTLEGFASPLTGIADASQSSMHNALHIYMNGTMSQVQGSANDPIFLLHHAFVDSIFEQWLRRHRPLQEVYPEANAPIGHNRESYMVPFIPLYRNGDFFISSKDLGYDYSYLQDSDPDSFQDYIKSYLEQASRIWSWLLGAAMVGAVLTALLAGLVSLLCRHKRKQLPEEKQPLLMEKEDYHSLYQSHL
Protocol: 1. Tyrosinase (DOPA Oxidase) Assay Using Cell Lysate:
Human melanoma cell line, SKMEL 188 (licensed from Memorial Sloan-Kettering), is used in the cell lysate assay and the screen. In the assay, compounds and L-dihydroxyphenylalanine (L-DOPA) (100 μg/ml) are incubated with the cell lysates containing human tyrosinase for 8 hr before the plates are read at 405 nm. Potency of the compounds in DOPA oxidase assay is correlated very well with that in tyrosine hydroxylase assay using ^3H-tyrosine as a substrate.

[2] = tested on: guinea pig skin pigmentation; experiment: In vivo study: skin depigmentation in black or dark brown guinea pigs; settings: 5% solution in ethanol:propylene glycol 70:30, topical, twice daily, 5 days per week for 4-8 weeks
Description: Black or dark brown guinea pigs with homogeneous skin color can be used in this study. A solution of the test compound (5% in ethanol:propylene glycol, 70:30) and the vehicle control are applied to the animals twice daily, 5 days per week for 4-8 weeks.

IC50 [1]: 200 nM
SMILES: Oc1ccc(C2CCC(O)CC2)c(O)c1 (centres unmarked) [4-(2,4-dihydroxyphenyl)cyclohexanol]
depigmentation of skin [2]: depigmentation of skin
